Reference: US20040143025A1, “Carbon monoxide generating compunds for treatment of vascular, inflammatory and immune disorders” (priority 2002, published 2004)

Legend:
iNOS = assay: Western blot of liver samples, iNOS; parameters: species or system rat; conditions: 2 h reperfusion
Procedure: Western blots. Protein was extracted from liver samples with PBSTDS buffer (50 mM Tris, 150 mM NaCl, 0.1% SDS, 1% sodium deoxycholate, and 1% triton X-100, pH 7.2). Proteins (30 μg/sample) in SDS-loading buffer (50 mM Tris, pH 7.6, 10% glycerol, 1% SDS) were subjected to 12% SDS-polyacrylamide gel electrophoresis and transferred to nitrocellulose membrane (Bio-Rad, Hercules, Calif.). The gel was stained with coomassie blue to document equal protein loading. The membrane was blocked with 3% dry milk and 0.1% Tween 20 (USB, Cleveland, Ohio) in PBS and incubated with rabbit anti-rat HO-1 or iNOS polyclonal Abs (SangStat, Fremont, Calif.). Relative protein quantities were determined using a densitometer (Kodak Digital Science 1D Analysis Software, Rochester, N.Y.).

TNF-α = assay: LPS-induced serum TNF-α in mice (sandwich ELISA); assay type: in vivo, C57/BL6 mice
Procedure: To examine the effect of gaseous CO on the immune system, C57/BL6 mice (B6, Jackson Laboratory, Bar Harbor, Me.) were first exposed to 500 ppm CO in air (Praxair, Danbury, Conn.) for one hour in a sealed chamber before injection of lipopolysaccharide (LPS) (0.3 mg/kg, i.v., Sigma, St Louis, Mo.). After injection, they were exposed to another hour in the CO chamber. Blood samples were collected one hour after LPS injection (through the aortic artery) and the COHb level in whole blood was measured by a whole blood AVOXimeter 4000 (A-VOX Systems, San Antonio, Tex.). Serum samples were separated and were kept at −80° C. until analysis. Serum TNF-α was measured by sandwich ELISA (Biosource, Camarillo, Calif.).
To reveal the therapeutic potential of CO generators, methylene chloride (MC, Sigma, St. Louis, Mo.) was selected as a lead compound. Different concentrations of MC were prepared by using olive oil as a solvent. Mice were treated with MC at 5 mg/kg., 50 mg/kg, and 500 mg/kg, p.o., one hour before LPS administration.

[1] = test system: Louvain rats immunized with collagen type II; assay: Rat collagen-arthritis model; assay type: in vivo; parameters: arthritic score / Arthritis Score / X-Ray Score: scale not given here
Procedure: To assess the therapeutic potential of methylene chloride as a carbon-monoxide generating compound in this disease model, female Louvain rats weighing between 120 and 150 g were injected intradermally with 0.5 mg native chicken collagen type II solubilized in 0.1M acetic acid and emulsified in incomplete Freund's adjuvant. At the onset of disease (around day 10) animals were divided into three groups. One group was treated daily with vehicle, the second and third groups with 100 mg/kg/day and 500 mg/kg/day methylene chloride (p.o.). Severity of disease was evaluated daily using a quantification method based on standardized levels of swelling and periarticular erythema. Animals were sacrificed on day 28. […] Compared to control animals these differences were statistically significant (p<0.02).
Iodoform and bromoform were compared with methylene chloride as alternative carbon monoxide generating compounds, using the rat collagen arthritis model described in Example 6 above. Briefly, arthritis was induced in a Lovain strain of rats by immunizing the animals with Collagen Type II in Incomplete Freund's Adjuvant. Digitized radiographs were obtained at the completion of the study on day 28. Pharmacokinetics were also determined and the synovial tissue from the inflamed joints of the treated animals was harvested on Day 16 or Day 28 post-immunization. Disease systems were generally evident by Day 10.

[2] = test system: anti-MHC class I alloantibodies; assay: Detection of alloantibodies (cytofluorimetry); assay type: in vivo, rat; conditions: vs recipients of control adenovirus-treated aortas
Procedure: Detection of alloantibodies. Donor LEW.1W splenocyts were incubated with heat-inactivated serum from ELW.1A recipients, serially diluted in PBS. Cells were then washed and simultaneously incubated with FITC-coupled donkey anti-rat IgG (Jackson Laboratories) and with a biotin-labeled anti-B cell Mab (clone OX33, ECACC). After washing, cells were incubated with phycoerythrin-coupled streptavidin. Serum levels of alloantibodies were determined by cytofluorimetry (FACScalibur, Becton Dickinson, San Jose, Calif.) and reported as the mean channel fluorescence (MCF) at each dilution of serum. A predominance of anti-donor MHC class II alloantibodies, as previously described in certain tolerance models (Cuturi et al., Eur. J. Immunol. 24:1627-31 (1994)), is detected by the binding of alloantibodies only to OX33 positive cells (B cells). The presence of anti-MHC class I alloantibodies results in labeling of OX33 negative (T cells) and positive cells. MCF of alloantibody binding to OX33 negative cells indicated the level of anti-MHC I alloantibodies.

SMILES	iNOS expression (Western blot) (iNOS)	serum TNF-α levels (TNF-α; LPS 0.3 mg/kg i.v., 500 ppm CO in air 1 h before and 1 h after LPS, blood 1 h after LPS)	X-ray score (bone erosion) ([1]; methylene chloride 100 mg/kg/day)	arthritic score (mean+/−standard error) ([1]; methylene chloride 100 mg/kg/day p.o., end of study (day 28))	X-ray score (bone erosion) ([1]; methylene chloride 500 mg/kg/day)	arthritic score ([1]; methylene chloride 500 mg/kg/day p.o., end of study (day 28))	level of TNF-α (TNF-α; MC 5 mg/kg p.o. one hour before LPS)	level of TNF-α (TNF-α; MC 50 mg/kg p.o. one hour before LPS)	level of TNF-α (TNF-α; MC 500 mg/kg p.o. one hour before LPS)	levels of anti-MHC class I alloantibodies [2]
[C-]#[O+] [CO, carbon monoxide]	no detectable bands	3,347+1393 pg/ml								
ClCCl [methylene chloride]			2.7+/−0.8	3.8+/−1.0	1.8+/−0.7	2.75	3720 ± 1666 pg/mL	3124.2 ± 1147 pg/mL	2339 ± 770 pg/mL	no statistical differences
